Where two headings read alike, the source gives them in different places.
Assays:
P. aegyptiaca seeds = experiment: P. aegyptiaca seed germination assay; type: in vivo, Phelipanche aegyptiaca; set-up: P. aegyptiaca germination EC50 values, source data average: unit not given here; P. aegyptiaca seed germination activity, source data average: unit of the concentration uncertain; details: for P. aegyptiaca seed germination activity, source data average: Supplementary Fig. 9b
Experimental: P. aegyptiaca seeds were harvested from Xinjiang province, China in 2017. The seeds were surface sterilized using 1% NaClO solution for 2 min and then washed with distilled water six times. For seed germination assay, about 20 pieces of glass fiber-filter paper discs (15 mm diameter, Whatman GF/B) were placed separately on two layers of filter papers (9 cm diameter, Whatman) in a Petri dish. Five milliliters of distilled water was added to each Petri dish to wet the papers. Approximately 40–90 sterilized seeds were spread onto each glass fiber-filter paper disc. After the seeds were conditioned in the dark at 25 °C for 4 days[48], glass fiber-filter paper discs were blotted dry on filter papers (9 cm) and transferred to the wells of 24-well cell culture plates. The testing compounds were dissolved in acetone and diluted with H2O (VH2O/Vacetone = 999/1) just before use[49]. rac-GR24 and 1‰ acetone solution were used as positive and negative controls, respectively. One hundred microliters of the test solution was added to each well of the plates, and all treatments were performed in three biological repeats. The plates were sealed and incubated in the dark at 25 °C for a week. The experiments were performed at least three times. The germinated seeds were observed by using an electronic magnifier at ×20 magnification.

ShHTL7 [1] = target: T1, ShHTL7 (Striga hermonthica, UniProt A0A0M3PNA2); experiment: ShHTL7-hydrolysis reaction analysis (HPLC); type: biochemical; details: 10 μM compound, 30 °C, 30 min; for relative percentage of hydrolysis by ShHTL7, source data average: Supplementary Figs. 11, 20a, 24a
Experimental: Compounds 4a, (R)- and (S)-4a, 4g-i, and rac-GR24 were dissolved in DMSO and prepared as stock solution ([…]) just before use. A 200 μL of the reaction solution consisting of PBS buffer (pH 7.3), 10 μM samples, and 10 μg recombinant ShHTL7 or its mutants was incubated at 30 °C for 30 min; with the reaction solution (200 μL) containing PBS buffer (pH 7.3) and 10 μM samples as the blank control[40],[52]. Subsequently, the reaction was terminated by adding 200 μL of methanol, and then the reaction mixture was shaken for 10 s and centrifuged at 5310 × g for 60 s. The supernatant was filtered and the remaining amount of samples was analyzed by HPLC. The relative percentages of hydrolysis were obtained by using the amount of compounds in blank control as reference.
Supplementary Fig. 11. Hydrolysis of 4a, (R)-4a, (S)-4a, 4g-i, and rac-GR24 by ShHTL7 at 30 °C for 30 min. The remaining amounts of compounds in recombinant ShHTL7 protein and buffer solution were determined by HPLC analysis. The relative percentages of hydrolysis were calculated by using the amount of compounds in the buffer as reference. The error bar indicates SD (n = 3 biologically independent experiments).
(§1) (1 picture or pasted object on this page, not shown here)

ShHTL7 [2] = target: T1, ShHTL7; experiment: Competitive inhibition of ShHTL7 with Yoshimulactone Green (YLG) as substrate; type: biochemical
Experimental: Based on the structural feature of the lead compound 2h, we selected three regions to perform further modification (Supplementary Fig. 6), to try to further improve bioactivity. Insertion of a carbonyl group between the bicyclo[2.2.1]hept-5-en-2-yl group and the piperazine ring was detrimental to binding affinity (Supplementary Fig. 6, region A). Removal of an oxygen atom in region B was found unfavorable to binding affinity as well. Therefore, we focused on modifying the benzene ring (region C) for 2h. A series of compounds with different groups at region C was synthesized (Supplementary Scheme 1). […] As SPR just measures the binding ability, another independent assay by using Yoshimulactone Green (YLG) as the fluorescent substrate was performed to determine the half-maximal inhibitory concentration (IC50) of these compounds against ShHTL7[22].
The excitation and emission wavelengths of YLG are 480 and 520 nm, respectively. We used a fluorescence spectrophotometer (CARY Eclipse) to detect the fluorescence intensity change of YLG during the enzymatic hydrolysis assay process. All the testing compounds and YLG were dissolved in DMSO and prepared as stock solutions just before use. […] The changes of fluorescence at 520 nm of each well were recorded every 1 min for 30 min. Using the reaction mixture without adding enzyme and tested compounds as the background control. After subtracting the background hydrolysis, a linear fluorescence increase in 8 min was used for further inspection. The IC50 values were determined via fitting relative inhibition percentages with the varying concentrations of compounds in Microsoft Excel.

[3] = system: Arabidopsis thaliana (Col-0); experiment: Arabidopsis root hair assay; type: in vivo; details: Col-0 seedlings on 1/2 MS medium, 1 μM; Supplementary Fig. 15; in µm (unit assumed)
Experimental: For Arabidopsis root hair assay, Arabidopsis thaliana (Col-0) seeds were surface sterilized by using 1% NaClO solution for 60 s and 75% ethanol solution for 60 s, and then washed by sterilized distilled water five times. The sterilized seeds were sowed on 1/2 MS media (2.202 g/L Murashige and Skoog basal salts, 0.5 g/L MES, 10 g/L sucrose, and 10 g/L agar, pH 5.7) which contained indicated concentrations of compounds. 0.1% DMSO was used as a negative control. The plates were placed 4 days at 4 °C and then placed vertically under fluorescent white light (100–150 μmol m^−2 s^−1) with 16 h light and 8 h dark at 20 ± 1 °C for 15 days[17],[55]. The root hairs were imaged by OLYMPUS (U-HGLGPS), and the lengths were analyzed by ImageJ. The experiments were repeated three times. For Arabidopsis shoot branching assay: Col-0 and max4-1 seeds were used in this experiment. Seeds surface sterilization was sterilized as described above. The Arabidopsis seedlings were placed on top of the cut black microcentrifuge tubes filled with 1/2 MS. The tubes were placed 4 days at 4 °C and then moved to fluorescent white light (100–150 μmol m^−2 s^−1) with 16 h light and 8 h dark at 20 ± 1 °C for 7 days[26]. The germinated seedlings were grown on hydroponic culture solutions (containing indicated concentrations of 4a, (R)- and (S)-4a), with the solution containing 0.01% DMSO as the negative control. The solutions were renewed every week. After 4 weeks, the numbers of rosette axillaries were analyzed.
type Arabidopsis. a, Representative primary root segments of Col-0 seedlings growing on 1/2 MS
medium with or without 1 μM tested chemicals. Scale bar, […]. b, The average length of root
hair is presented as means ± SD (n = 3 biologically independent experiments).
as §1

[4] = 0.1 (unit uncertain) as printed
[5] = ShHTL7, YLG competition, Supplementary Fig. 27, read-out: IC50, replicate 1
[6] = ShHTL7, YLG competition, Supplementary Fig. 27, read-out: IC50, replicate 2
[7] = ShHTL7, YLG competition, Supplementary Fig. 27, read-out: IC50, replicate 3
[8] = wild-type ShHTL7, average of 3, source data of Fig. 2a,b, Supplementary Figs. 8a, 9a, 20b, read-out: IC50, competitive ShHTL7 inhibition (YLG), source data average
[9] = Phelipanche aegyptiaca, source data of Fig. 2c and Supplementary Fig. 8b, average of 3, read-out: P. aegyptiaca germination EC50 values, source data average (converted)
[10] = ShHTL7, average of 3 replicates, Supplementary Fig. 27, read-out: IC50, average
[11] = YLG as substrate, text and Fig. 2, read-out: IC50, competitive ShHTL7 inhibition (YLG assay)
[12] = Phelipanche aegyptiaca, read-out: EC50, P. aegyptiaca seed germination

T1 sequence (A0A0M3PNA2 entry or part of it): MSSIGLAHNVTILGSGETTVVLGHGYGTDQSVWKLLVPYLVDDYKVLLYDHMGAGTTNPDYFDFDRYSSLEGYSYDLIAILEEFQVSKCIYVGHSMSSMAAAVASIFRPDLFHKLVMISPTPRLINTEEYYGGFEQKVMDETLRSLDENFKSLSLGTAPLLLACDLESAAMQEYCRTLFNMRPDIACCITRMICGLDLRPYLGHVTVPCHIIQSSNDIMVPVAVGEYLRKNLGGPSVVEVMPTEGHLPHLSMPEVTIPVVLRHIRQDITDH

Compound | P. aegyptiaca seed germination activity, source data average (P. aegyptiaca seeds; [4]) [%] | P. aegyptiaca seed germination activity, source data average (P. aegyptiaca seeds; 1 (unit uncertain) as printed) [%] | P. aegyptiaca seed germination activity, source data average (P. aegyptiaca seeds; 10 (unit uncertain) as printed) [%] | relative percentage of hydrolysis by ShHTL7, source data average (ShHTL7 [1]) [%] | IC50 (ShHTL7 [2]; [5]) [nM] | IC50 (ShHTL7 [2]; [6]) [nM] | IC50 (ShHTL7 [2]; [7]) [nM] | IC50 (ShHTL7 [2]; [8]) [nM] | average length of root hair, source data average [3] | EC50 (P. aegyptiaca seeds; [9]) [nM] | hydrolysis by ShHTL7 (ShHTL7 [1]) [%] | IC50 (ShHTL7 [2]; [10]) [nM] | IC50 (ShHTL7 [2]; [11]) [nM] | EC50 (P. aegyptiaca seeds; [12]) [nM] | fold improved P. aegyptiaca seed germination activity, (S)-4a versus (R)-4a (P. aegyptiaca seeds; in vivo) | germination of P. aegyptiaca seeds, source data average (P. aegyptiaca seeds; 10 μM, Fig. 1d source data, average of 3) [%] | P. aegyptiaca germination(%) (P. aegyptiaca seeds; Supplementary Table 1, compounds tested at 10 μM, means ± SD, n = 3) | EC50 (P. aegyptiaca seeds; in vivo, read-out: EC50, P. aegyptiaca seed germination) [nM] | P. aegyptiaca germination EC50 values, source data average (P. aegyptiaca seeds; source data of Fig. 2c and Supplementary Fig. 8b, average of 3) | IC50 (ShHTL7 [2]; YLG used as the substrate, means ± SD, n = 3, read-out: IC50 (Supplementary Table 1)) [nM]
CC1=CC(CC(=O)N2CCN(C(=O)COc3ccc(Br)cc3C)CC2)OC1=O (centres unmarked) [4i] | 6.798 | 17.2667 | 39.4856 | -2.582 | 5980 | 5200 | 4350 | 5180 | – | – | – | – | – | – | – | – | – | – | – | –
CC1=C[C@@H](OC(=O)N2CCN(C(=O)COc3ccc(Br)cc3C)CC2)OC1=O [(R)-4a] | – | – | – | 3.081 | 40100 | 33700 | 33700 | 35800 | 172.727 | 1270 | 3.1 | 35800 | 35800 ± 3690 | – | – | – | – | – | – | –
CC1=CC(OC(=O)N2CCN(C(=O)COc3ccc(Br)cc3C)CC2)OC1=O (centres unmarked) [4a] | – | – | – | 36.438 | 953 | 1350 | 1320 | 1210 | 163.912 | 0.0628 | 36.4 | – | 1210 ± 220 | ~0.0862 | – | – | – | – | – | –
CC1=CC(OC(=O)N2CCN(C(=O)COc3ccc(Br)cc3C)CC2)N(C)C1=O (centres unmarked) [4h] | 6.8801 | 41.0534 | 82.4464 | 12.2513 | 4330 | 5430 | 4750 | 4840 | – | – | – | – | – | – | – | – | – | – | – | –
CC1=CC(OC(=O)N2CCN(C(=O)COc3ccc(Br)cc3C)CC2)CC1=O (centres unmarked) [4g] | 11.4951 | 63.9751 | 69.9023 | 10.7551 | 3080 | 1610 | 1970 | 2220 | – | – | – | – | – | – | – | – | – | – | – | –
CC1=C[C@H](OC(=O)N2CCN(C(=O)COc3ccc(Br)cc3C)CC2)OC1=O [(S)-4a] | – | – | – | 40.0583 | 1060 | 837 | 921 | 938 | 211.816 | 0.021 | 40.1 | 938 | 940 ± 110 | 0.0339 | over 40,000 fold | – | – | – | – | –
CC1=C[C@H](O/C=C2/C(=O)O[C@@H]3c4ccccc4C[C@H]23)OC1=O (racemic) [rac-GR24, reference compound] | 90.7731 | 95.3227 | 96.5229 | 51.9391 | 633 | 842 | 614 | – | 474.342 | – | 51.9 | 696 | – | – | – | 96.5229 | 96.4 | 0.0485 | 10.3597 | 730 ± 110

Source: PMC9271048, “Probing strigolactone perception mechanisms with rationally designed small-molecule agonists stimulating germination of root parasitic weeds” (Nature Communications, 2022)
